Test results: PubChem BioAssay (NCI)
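Tested at 5 concentrations; 48 h exposure; 96-well plates; endpoints linearly interpolated, else capped at highest concentration. TGI denotes the concentration required for complete inhibition of growth.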

How the values were obtained:
Test in all cases: DTP human tumour cell line panel, 48 h
U251 CNS = system: U251 CNS
SK-MEL-2 melanoma = system: SK-MEL-2 melanoma
UO-31 renal = system: UO-31 renal
MDA-MB-231 breast = system: MDA-MB-231 breast
NCI-H460 lung = system: NCI-H460 lung
MALME-3M melanoma = system: MALME-3M melanoma
PC-3 prostate = system: PC-3 prostate
UACC-257 melanoma = system: UACC-257 melanoma
CAKI-1 renal = system: CAKI-1 renal
MCF7 breast = system: MCF7 breast
NCI/ADR-RES ovarian = system: NCI/ADR-RES ovarian
M14 melanoma = system: M14 melanoma
EKVX NSCLC = system: EKVX NSCLC
BT-549 breast = system: BT-549 breast
NCI-H226 lung = system: NCI-H226 lung
HL-60(TB) leukemia = system: HL-60(TB) leukemia
SF-295 CNS = system: SF-295 CNS
T-47D breast = system: T-47D breast
SNB-75 CNS = system: SNB-75 CNS
DU-145 prostate = system: DU-145 prostate
MOLT-4 leukemia = system: MOLT-4 leukemia
K-562 leukemia = system: K-562 leukemia
LOX IMVI melanoma = system: LOX IMVI melanoma
ACHN renal = system: ACHN renal
TK-10 renal = system: TK-10 renal
IGROV1 ovarian = system: IGROV1 ovarian
SN12C renal = system: SN12C renal
HCC-2998 colon = system: HCC-2998 colon
MDA-MB-435 = system: MDA-MB-435
UACC-62 melanoma = system: UACC-62 melanoma
HCT-15 colon = system: HCT-15 colon
SW-620 colon = system: SW-620 colon
COLO 205 colon = system: COLO 205 colon
A498 renal = system: A498 renal
HCT-116 colon = system: HCT-116 colon
SK-OV-3 ovarian = system: SK-OV-3 ovarian
SR leukemia = system: SR leukemia
A549 NSCLC = system: A549 NSCLC
NCI-H23 lung = system: NCI-H23 lung
SK-MEL-28 melanoma = system: SK-MEL-28 melanoma
OVCAR-3 ovarian = system: OVCAR-3 ovarian
HS 578T breast = system: HS 578T breast
RXF 393 renal = system: RXF 393 renal
SF-268 CNS = system: SF-268 CNS
OVCAR-8 ovarian = system: OVCAR-8 ovarian
SF-539 CNS = system: SF-539 CNS
HOP-62 NSCLC = system: HOP-62 NSCLC
KM12 colon = system: KM12 colon
CCRF-CEM leukemia = system: CCRF-CEM leukemia
RPMI-8226 leukemia = system: RPMI-8226 leukemia
SK-MEL-5 melanoma = system: SK-MEL-5 melanoma
NCI-H522 lung = system: NCI-H522 lung
SNB-19 CNS = system: SNB-19 CNS
MDA-N = system: MDA-N
HOP-92 NSCLC = system: HOP-92 NSCLC
HT29 colon = system: HT29 colon
OVCAR-4 ovarian = system: OVCAR-4 ovarian
OVCAR-5 ovarian = system: OVCAR-5 ovarian
786-0 renal = system: 786-0 renal

N#CS/C(C(Cl)=C(Cl)Cl)=C(/Cl)[N+](=O)[O-]
TGI (U251 CNS): 30 µM | TGI (SK-MEL-2 melanoma): 17.1 µM | TGI (UO-31 renal): 3.1 µM | TGI (MDA-MB-231 breast): 11.9 µM | TGI (NCI-H460 lung): 33.2 µM | TGI (MALME-3M melanoma): 3.25 µM | TGI (PC-3 prostate): 9.79 µM | TGI (UACC-257 melanoma): 3.79 µM | TGI (CAKI-1 renal): 2420 nM | TGI (MCF7 breast): 29.3 µM | TGI (NCI/ADR-RES ovarian): > 28.1 µM | TGI (M14 melanoma): 2790 nM | TGI (EKVX NSCLC): 6.76 µM | TGI (BT-549 breast): 4.92 µM | TGI (NCI-H226 lung): 19.9 µM | TGI (HL-60(TB) leukemia): 512 nM | TGI (SF-295 CNS): 45.4 µM | TGI (T-47D breast): 4.86 µM | TGI (SNB-75 CNS): 52 µM | TGI (DU-145 prostate): 27.8 µM | TGI (MOLT-4 leukemia): 2190 nM | TGI (K-562 leukemia): 1620 nM | TGI (LOX IMVI melanoma): 2370 nM | TGI (ACHN renal): 3.1 µM | TGI (TK-10 renal): 4.66 µM | TGI (IGROV1 ovarian): 5.63 µM | TGI (SN12C renal): 4.92 µM | TGI (HCC-2998 colon): 34.6 µM | TGI (MDA-MB-435): 3.19 µM | TGI (UACC-62 melanoma): 17.5 µM | TGI (HCT-15 colon): 6.59 µM | TGI (SW-620 colon): 3.5 µM | TGI (COLO 205 colon): 3.66 µM | TGI (A498 renal): 38.2 µM | TGI (HCT-116 colon): 3 µM | TGI (SK-OV-3 ovarian): 31.2 µM | TGI (SR leukemia): 2150 nM | TGI (A549 NSCLC): 53.8 µM | TGI (NCI-H23 lung): 7.95 µM | TGI (SK-MEL-28 melanoma): 3.45 µM | TGI (OVCAR-3 ovarian): 3.1 µM | TGI (HS 578T breast): > 61.4 µM | TGI (RXF 393 renal): 2980 nM | TGI (SF-268 CNS): 18.9 µM | TGI (OVCAR-8 ovarian): 3.49 µM | TGI (SF-539 CNS): 16.1 µM | TGI (HOP-62 NSCLC): 33.4 µM | TGI (KM12 colon): 32.4 µM | TGI (CCRF-CEM leukemia): 1180 nM | TGI (RPMI-8226 leukemia): 4.25 µM | TGI (SK-MEL-5 melanoma): 6.37 µM | TGI (NCI-H522 lung): 2130 nM | TGI (SNB-19 CNS): 49.4 µM | TGI (MDA-N): 3.18 µM

COC(=O)N1CC[C@@H]2CCC=C(c3cccc4c3OCO4)[C@@H]21
TGI (U251 CNS): > 100 µM | TGI (SK-MEL-2 melanoma): > 100 µM | TGI (HOP-92 NSCLC): > 100 µM | TGI (UO-31 renal): > 100 µM | TGI (MDA-MB-231 breast): > 100 µM | TGI (NCI-H460 lung): > 100 µM | TGI (MALME-3M melanoma): > 100 µM | TGI (PC-3 prostate): > 100 µM | TGI (UACC-257 melanoma): > 100 µM | TGI (CAKI-1 renal): > 100000 nM | TGI (MCF7 breast): > 100 µM | TGI (NCI/ADR-RES ovarian): > 100 µM | TGI (M14 melanoma): > 100000 nM | TGI (HT29 colon): > 100 µM | TGI (EKVX NSCLC): > 100 µM | TGI (BT-549 breast): > 100 µM | TGI (NCI-H226 lung): > 100 µM | TGI (HL-60(TB) leukemia): > 100000 nM | TGI (SF-295 CNS): > 100 µM | TGI (T-47D breast): > 100 µM | TGI (SNB-75 CNS): 62 µM | TGI (OVCAR-4 ovarian): > 100 µM | TGI (DU-145 prostate): > 100 µM | TGI (MOLT-4 leukemia): > 100000 nM | TGI (K-562 leukemia): > 100000 nM | TGI (LOX IMVI melanoma): > 100000 nM | TGI (ACHN renal): > 100 µM | TGI (TK-10 renal): > 100 µM | TGI (IGROV1 ovarian): > 100 µM | TGI (SN12C renal): > 100 µM | TGI (HCC-2998 colon): > 100 µM | TGI (MDA-MB-435): > 100 µM | TGI (UACC-62 melanoma): > 100 µM | TGI (OVCAR-5 ovarian): > 100 µM | TGI (HCT-15 colon): > 100 µM | TGI (SW-620 colon): > 100 µM | TGI (COLO 205 colon): > 100 µM | TGI (A498 renal): > 100 µM | TGI (HCT-116 colon): > 100 µM | TGI (SK-OV-3 ovarian): > 100 µM | TGI (SR leukemia): > 100000 nM | TGI (A549 NSCLC): > 100 µM | TGI (NCI-H23 lung): > 100 µM | TGI (SK-MEL-28 melanoma): > 100 µM | TGI (OVCAR-3 ovarian): > 100 µM | TGI (HS 578T breast): > 100 µM | TGI (RXF 393 renal): > 100000 nM | TGI (SF-268 CNS): > 100 µM | TGI (OVCAR-8 ovarian): > 100 µM | TGI (SF-539 CNS): > 100 µM | TGI (HOP-62 NSCLC): > 100 µM | TGI (KM12 colon): > 100 µM | TGI (CCRF-CEM leukemia): > 100000 nM | TGI (786-0 renal): > 100 µM | TGI (SK-MEL-5 melanoma): > 100 µM | TGI (NCI-H522 lung): > 100000 nM | TGI (SNB-19 CNS): > 100 µM | TGI (MDA-N): > 100 µM
